Structures are written as SMILES. Bounds are passed on as bounds.

Chain of JH2 domain of human Tyk2 (P29597 575-876): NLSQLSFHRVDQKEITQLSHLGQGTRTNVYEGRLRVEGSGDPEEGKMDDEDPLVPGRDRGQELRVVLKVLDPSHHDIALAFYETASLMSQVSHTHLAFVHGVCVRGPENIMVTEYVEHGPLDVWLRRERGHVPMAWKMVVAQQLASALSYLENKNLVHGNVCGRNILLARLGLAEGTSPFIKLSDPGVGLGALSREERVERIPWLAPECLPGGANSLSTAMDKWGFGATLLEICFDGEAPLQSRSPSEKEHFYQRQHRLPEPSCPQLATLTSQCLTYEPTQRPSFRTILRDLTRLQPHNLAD

In the first assay the target is Tyk2 (Homo sapiens (Human), UniProt P29597). Description: pSTAT4 Cell Assay (MSD, NK92 cells). In kind it is cell-based. The settings on record: MSD.
Chain of Tyk2 (P29597 whole entry): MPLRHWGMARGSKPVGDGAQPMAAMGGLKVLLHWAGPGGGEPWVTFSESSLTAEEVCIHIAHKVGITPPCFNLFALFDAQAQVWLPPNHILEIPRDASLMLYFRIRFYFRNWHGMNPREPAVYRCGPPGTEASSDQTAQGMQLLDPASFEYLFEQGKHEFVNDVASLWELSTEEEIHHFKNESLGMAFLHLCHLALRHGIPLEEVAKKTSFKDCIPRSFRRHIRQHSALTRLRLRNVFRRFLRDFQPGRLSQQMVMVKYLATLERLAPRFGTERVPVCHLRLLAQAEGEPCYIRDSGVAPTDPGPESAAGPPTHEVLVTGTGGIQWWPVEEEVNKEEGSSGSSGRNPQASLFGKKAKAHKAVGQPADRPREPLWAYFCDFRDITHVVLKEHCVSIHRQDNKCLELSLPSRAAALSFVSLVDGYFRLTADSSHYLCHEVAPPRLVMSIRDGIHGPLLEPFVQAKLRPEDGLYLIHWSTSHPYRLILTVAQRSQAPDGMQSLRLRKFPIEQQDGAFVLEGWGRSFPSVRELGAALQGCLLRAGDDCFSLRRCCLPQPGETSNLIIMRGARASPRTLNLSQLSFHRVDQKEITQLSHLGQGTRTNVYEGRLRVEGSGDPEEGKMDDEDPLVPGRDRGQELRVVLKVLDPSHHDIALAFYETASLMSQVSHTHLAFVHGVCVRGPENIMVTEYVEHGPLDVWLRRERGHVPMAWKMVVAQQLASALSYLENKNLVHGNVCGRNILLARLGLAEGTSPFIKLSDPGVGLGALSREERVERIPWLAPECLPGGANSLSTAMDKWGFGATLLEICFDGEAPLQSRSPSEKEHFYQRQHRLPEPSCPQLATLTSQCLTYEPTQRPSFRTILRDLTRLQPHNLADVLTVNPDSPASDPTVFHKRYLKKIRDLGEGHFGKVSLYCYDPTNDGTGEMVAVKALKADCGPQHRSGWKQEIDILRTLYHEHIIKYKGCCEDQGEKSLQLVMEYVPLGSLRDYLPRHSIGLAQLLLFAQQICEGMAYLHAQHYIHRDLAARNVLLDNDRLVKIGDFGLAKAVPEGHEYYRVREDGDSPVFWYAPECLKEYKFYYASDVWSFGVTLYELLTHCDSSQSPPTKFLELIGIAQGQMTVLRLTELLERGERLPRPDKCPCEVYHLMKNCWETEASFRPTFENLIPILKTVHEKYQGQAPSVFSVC
As a reminder, the IC50 is the concentration that inhibits the measured activity by half. A high value points to a need for much substance. For the molecule `CC(=O)Nc1cc(Nc2cc(C)nc(C(C)(F)F)n2)c(OC[C@H]2C[C@H]2CF)cn1` (racemic) [Example 428, Cis-rac-N-(4-((2-(1,1-difluoroethyl)-6-methylpyrimidin-4-yl)amino)-5-((2-(fluoromethyl)cyclopropyl)methoxy)pyridin-2-yl)acetamide], the 50% inhibitory concentration (IC50) was 10 to 100 nM.

Another assay concerns the target JH2 domain of human Tyk2 (Homo sapiens (Human), UniProt P29597). Briefly: JH2 Biochemical Assay (TR-FRET probe displacement). The class given is binding. To be noted: JH2 domain of human Tyk2, TR-FRET probe displacement. As for the experimental part: The inhibitory potency of compounds of the disclosure against the kinase activity of recombinantly generated JH2 domain of human Tyk2 was evaluated in a plate-based assay using a TR-FRET assay platform. Briefly, 2 nM of recombinant JH2 domain [10×His-tagged TYK2 JH2 domain (amino acid 575-876)] was combined with 2 nM probe ((S)-6-amino-9-(2-carboxy-4-((1-(3-(8-methyl-5-(methylamino)-8H-imidazo[4,5-d]thiazolo[5,4-b]pyridin-2-yl)phenyl)ethyl)carbamoyl)phenyl)-3-iminio-5-sulfo-3H-xanthene-4-sulfonate), 0.1 nM Tb-labeled anti-His antibody, and compounds of disclosure for 60 minutes. Compounds are tested at either 10 μM or 1 μM top concentration, 10 points of 3-fold dilution. The TR-FRET signal inversely correlates to the amount of probe displaced by compounds and signal was calculated by taking the ratio of fluorescence at 520 nm and 495 nm. The data was normalized and the percent activity versus log concentration of compound was fitted with a 4-parameter logistic model to generate IC50 curves.
In turn, `CC(=O)Nc1cc(Nc2cc(C)nc(C(C)(F)F)n2)c(OC[C@H]2C[C@H]2CF)cn1` (racemic) [Example 428, Cis-rac-N-(4-((2-(1,1-difluoroethyl)-6-methylpyrimidin-4-yl)amino)-5-((2-(fluoromethyl)cyclopropyl)methoxy)pyridin-2-yl)acetamide] gave a concentration for half-maximal inhibition (IC50) of at most 10 nM.

`COc1cnc(NC(C)=O)cc1Nc1cc(-c2cc(C)c3nc(C)nn3c2)nc(C(C)(F)F)n1` [Example 397, N-(4-((2-(1,1-difluoroethyl)-6-(2,8-dimethyl-[1,2,4]triazolo[1,5-a]pyridin-6-yl)pyrimidin-4-yl)amino)-5-methoxypyridin-2-yl)acetamide] yielded an IC50 of at most 10 nM.

The molecule `COc1cnc(NC(C)=O)cc1Nc1cc(-c2cc(C)c3nn(C)cc3c2)nc(C(C)(F)F)n1` [Example 400, N-(4-((2-(1,1-difluoroethyl)-6-(2,7-dimethyl-2H-indazol-5-yl)pyrimidin-4-yl)amino)-5-methoxypyridin-2-yl)acetamide] displayed a half-inhibitory concentration (IC50) of at most 10 nM.

`COc1cnc(NC(C)=O)cc1Nc1cc(-c2cc(C)c3nc(C)cn3c2)nc(C(C)(F)F)n1` [Example 403, N-(4-((2-(1,1-difluoroethyl)-6-(2,8-dimethylimidazo[1,2-a]pyridin-6-yl)pyrimidin-4-yl)amino)-5-methoxypyridin-2-yl)acetamide] showed a half-maximal inhibitory concentration (IC50) of at most 10 nM.

`CC(=O)Nc1cc(Nc2cc(C)nc(C(C)(F)F)n2)c(OCC2(C)CCCCO2)cn1` (stereo not drawn) [Example 435, N-(4-((2-(1,1-difluoroethyl)-6-methylpyrimidin-4-yl)amino)-5-((2-methyltetrahydro-2H-pyran-2-yl)methoxy)pyridin-2-yl)acetamide] came in with a concentration for half-maximal inhibition (IC50) of at most 10 nM.

The molecule `COc1cnc(NC(C)=O)cc1Nc1cc(OC2CC2)nc(C(F)(F)F)n1` [Example 437, N-(4-((6-cyclopropoxy-2-(trifluoromethyl)pyrimidin-4-yl)amino)-5-methoxypyridin-2-yl)acetamide] displayed an IC50 of 10 to 100 nM.

Turning to `COc1cc(C(F)(F)F)nc(Nc2cc(NC(C)=O)ncc2OC)n1` [Example 438, N-(5-methoxy-4-((4-methoxy-6-(trifluoromethyl)pyrimidin-2-yl)amino)pyridin-2-yl)acetamide], the IC50 lay in the range of 100 to 1000 nM.

Turning to `COc1nc(C)cc(Nc2cc(NC(C)=O)ncc2OC)n1` [Example 452, N-(5-methoxy-4-((2-methoxy-6-methylpyrimidin-4-yl)amino)pyridin-2-yl)acetamide], the half-inhibitory concentration (IC50) lay in the range of 10 to 100 nM.

`COCC12CC(c3nc(C)cc(Nc4cc(NC(C)=O)ncc4-c4ccn(C)n4)n3)(CO1)C2` [Example 561, N-(4-((2-(1-(methoxymethyl)-2-oxabicyclo[2.1.1]hexan-4-yl)-6-methylpyrimidin-4-yl)amino)-5-(1-methyl-1H-pyrazol-3-yl)pyridin-2-yl)acetamide] had a half-inhibitory concentration (IC50) of 10 to 100 nM.

In the case of `CC(=O)Nc1cc(Nc2cc(C)nc(C(C)(F)F)n2)c(-c2nc(C)ns2)cn1` [Example 618, N-(4-((2-(1,1-difluoroethyl)-6-methylpyrimidin-4-yl)amino)-5-(3-methyl-1,2,4-thiadiazol-5-yl)pyridin-2-yl)acetamide], the IC50 is at most 10 nM.

In turn, `COc1cc(C)nc(-c2cnc(NC(C)=O)cc2Nc2cc(C)nc(C(C)(F)F)n2)n1` [Example 621, N-(4-((2-(1,1-difluoroethyl)-6-methylpyrimidin-4-yl)amino)-5-(4-methoxy-6-methylpyrimidin-2-yl)pyridin-2-yl)acetamide] displayed an IC50 of 10 to 100 nM.

In turn, `COc1ccc(-c2cnc(NC(C)=O)cc2Nc2cc(C)nc(C(C)(F)F)n2)nc1F` [Example 622, N-(4′-((2-(1,1-difluoroethyl)-6-methylpyrimidin-4-yl)amino)-6-fluorO5-methoxy-[2,3′-bipyridin]-6′-yl)acetamide] registered an IC50 of at most 10 nM.

As for `CC(=O)Nc1cc(Nc2cc(C)nc(C(C)(F)F)n2)c(-c2cc(F)ccn2)cn1` [Example 624, N-(4′-((2-(1,1-difluoroethyl)-6-methylpyrimidin-4-yl)amino)-4-fluorO[2,3′-bipyridin]-6′-yl)acetamide], the IC50 is at most 10 nM.

`CC(=O)Nc1cc(Nc2ccnc(C(C)(F)F)n2)c(-c2csc(C(C)(C)F)n2)cn1` [Example 713, N-(4-((2-(1,1-difluoroethyl)pyrimidin-4-yl)amino)-5-(2-(2-fluoropropan-2-yl)thiazol-4-yl)pyridin-2-yl)acetamide] displayed a half-maximal inhibitory concentration (IC50) of at most 10 nM.

For the molecule `CC(=O)Nc1cc(Nc2ccnc(C(C)(F)F)n2)c(-c2nnc(C3CC3)o2)cn1` [Example 717, N-(5-(5-cyclopropyl-1,3,4-oxadiazol-2-yl)-4-((2-(1,1-difluoroethyl)pyrimidin-4-yl)amino)pyridin-2-yl)acetamide], the IC50 is at most 10 nM.

Take `CC(=O)Nc1cc(Nc2cc(C)nc(C(C)(F)F)n2)c(N(C)C)cn1` [Example 725, N-(4-((2-(1,1-difluoroethyl)-6-methylpyrimidin-4-yl)amino)-5-(dimethylamino)pyridin-2-yl)acetamide]: the IC50 was in the range of 100 to 1000 nM.

As for `CC(=O)Nc1cc(Nc2cc(C)nc(C(C)(F)F)n2)c(N2CCCC2)cn1` [Example 726, N-(4-((2-(1,1-difluoroethyl)-6-methylpyrimidin-4-yl)amino)-5-(pyrrolidin-1-yl)pyridin-2-yl)acetamide], the IC50 lay within 10 to 100 nM.

In turn, `CC(=O)Nc1cc(Nc2cc(C)nc(C(C)(F)F)n2)c(N2CCOCC2)cn1` [Example 727, N-(4-((2-(1,1-difluoroethyl)-6-methylpyrimidin-4-yl)amino)-5-morpholinopyridin-2-yl)acetamide] had an IC50 of 100 to 1000 nM.

Regarding `CC(=O)Nc1cc(Nc2ccnc(C(C)(F)F)n2)c(-n2cc(C#N)cn2)cn1` [Example 732, N-(5-(4-cyanO1H-pyrazol-1-yl)-4-((2-(1,1-difluoroethyl)pyrimidin-4-yl)amino)pyridin-2-yl)acetamide], the 50% inhibitory concentration (IC50) lay in the range of 10 to 100 nM.

Turning to `CC(=O)Nc1cc(Nc2ccnc(C(C)(F)F)n2)c(-n2cnc(C)n2)cn1` [Example 734, N-(4-((2-(1,1-difluoroethyl)pyrimidin-4-yl)amino)-5-(3-methyl-1H-1,2,4-triazol-1-yl)pyridin-2-yl)acetamide], the concentration for half-maximal inhibition (IC50) lay within 100 to 1000 nM.

In the case of `CC(=O)Nc1cc(Nc2cc(C)nc(C(C)(F)F)n2)c(-n2cnc(C)n2)cn1` [Example 735, N-(4-((2-(1,1-difluoroethyl)-6-methylpyrimidin-4-yl)amino)-5-(3-methyl-1H-1,2,4-triazol-1-yl)pyridin-2-yl)acetamide], the concentration for half-maximal inhibition (IC50) was in the range of 10 to 100 nM.

`CC(=O)Nc1cc(Nc2cc(C)nc(C(C)(F)F)n2)c(-c2cc(CN3CCOCC3)n(C)n2)cn1` [Example 739, N-(4-((2-(1,1-difluoroethyl)-6-methylpyrimidin-4-yl)amino)-5-(1-methyl-5-(morpholinomethyl)-1H-pyrazol-3-yl)pyridin-2-yl)acetamide] registered an IC50 of at most 10 nM.

`CC(=O)Nc1cc(Nc2cc(C)nc(C(C)(F)F)n2)c(-c2cnc(C(C)N3CCCC3)cn2)cn1` (stereo not drawn) [Example 742, N-(4-((2-(1,1-difluoroethyl)-6-methylpyrimidin-4-yl)amino)-5-(5-(1-(pyrrolidin-1-yl)ethyl)pyrazin-2-yl)pyridin-2-yl)acetamide] registered an IC50 of at most 10 nM.

The same assay, now with this note: TR-FRET probe displacement, JH2 domain.
On to `CC(=O)Nc1cc(Nc2cc(C)nc(C34COC(C3)C4)n2)c(-c2ccc(F)cn2)cn1` [Example 752, N-(4′-((2-(2-oxabicyclo[2.1.1]hexan-4-yl)-6-methylpyrimidin-4-yl)amino)-5-fluorO[2,3′-bipyridin]-6′-yl)acetamide], for which the concentration for half-maximal inhibition (IC50) is at most 10 nM.

`CC(=O)Nc1cc(Nc2cc(C)nc(C(C)(F)F)n2)c(-c2nc(CN3CCN(C)CC3)cs2)cn1` [Example 785, N-(4-((2-(1,1-difluoroethyl)-6-methylpyrimidin-4-yl)amino)-5-(4-((4-methylpiperazin-1-yl)methyl)thiazol-2-yl)pyridin-2-yl)acetamide]: the IC50 was at most 10 nM.

For the molecule `CC(=O)Nc1cc(Nc2cc(C)nc(C(C)(F)F)n2)c(-c2cc(CN3CCOCC3)ccn2)cn1` [Example 806, N-(4′-((2-(1,1-difluoroethyl)-6-methylpyrimidin-4-yl)amino)-4-(morpholinomethyl)-[2,3′-bipyridin]-6′-yl)acetamide], the IC50 is at most 10 nM.

On to `COCCOc1cc(Nc2ccnc(NC(C)=O)c2)nc(C(C)(F)F)n1` [Example 809, N-(4-((2-(1,1-difluoroethyl)-6-(2-methoxyethoxy)pyrimidin-4-yl)amino)pyridin-2-yl)acetamide], for which the 50% inhibitory concentration (IC50) was 10 to 100 nM.

`CC(=O)Nc1cc(Nc2cccc(C(C)(F)F)n2)c(-c2ccc3c(n2)OCC(C)(C)O3)cn1` [Example 820, N-(4-((6-(1,1-difluoroethyl)pyridin-2-yl)amino)-5-(2,2-dimethyl-2,3-dihydro-[1,4]dioxino[2,3-b]pyridin-6-yl)pyridin-2-yl)acetamide] yielded an IC50 of at most 10 nM.

The same assay, now with this note: TR-FRET probe displacement, JH2 domain of human Tyk2.
With `CC(=O)Nc1cc(Nc2cc(C)nc(C(C)(F)F)n2)c(OC[C@]23CC[C@](C)(CC2)CO3)cn1` [Example 347, N-(4-((2-(1,1-difluoroethyl)-6-methylpyrimidin-4-yl)amino)-5-(((1s,4s)-4-methyl-2-oxabicyclo[2.2.2]octan-1-yl)methoxy)pyridin-2-yl)acetamide], the IC50 is at most 10 nM.

The record behind these values is patent US20260028365A1 (BIOGEN MA INC., priority 2022, published 2026).
